Compound in one assay: O=[As]([O-])(O)O.[K+] [potassium arsenate]
The experiment in a line: thermal stability z-score vs DMSO; higher = more thermally stabilized by treatment. The note with it: HeLa; arsenate concentration 1 mM. The procedure: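 Cellular thermal proteome profiling in HeLa cells treated with 1 mM arsenate for 1 h (DMSO pretreatment), heated to ten temperatures (37-66.3 °C). Soluble protein was quantified by TMT mass spectrometry relative to DMSO controls; the thermal stability score was transformed to a z-score; mean of n = 3 experiments.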

Compound in the next assay: NC(=O)CCCCC1CCSS1 [lipoamide]
The description is as above. The note with it: HeLa, lipoamide concentration 100 µM. The protocol: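 Cellular thermal proteome profiling in HeLa cells. Cells were treated with 100 µM lipoamide for 1 h, with or without 1 mM arsenate for a further 1 h, then heated to ten temperatures (37-66.3 °C), and soluble protein was quantified by TMT mass spectrometry relative to 0.1% DMSO controls. The thermal stability score (sum of log2 fold changes minus the abundance score) was transformed to a z-score; mean of n = 3 experiments.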

[1] abbreviates: arsenate co-treatment: 1 mM arsenate 1 h.
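Also: each temperature applied for 3 min, abundance score taken as mean log2 fold change at the two lowest temperatures, z-score obtained by mean subtraction and division by SD.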

Chain of UniProt O75821 (O75821 whole entry): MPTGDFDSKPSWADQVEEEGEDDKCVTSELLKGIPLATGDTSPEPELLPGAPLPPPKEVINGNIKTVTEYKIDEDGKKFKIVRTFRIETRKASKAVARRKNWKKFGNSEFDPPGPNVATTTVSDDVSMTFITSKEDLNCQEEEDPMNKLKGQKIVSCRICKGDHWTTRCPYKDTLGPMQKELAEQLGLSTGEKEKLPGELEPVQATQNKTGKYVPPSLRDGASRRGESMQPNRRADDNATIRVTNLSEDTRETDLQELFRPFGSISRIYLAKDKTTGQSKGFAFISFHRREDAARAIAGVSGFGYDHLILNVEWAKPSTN
Chain of UniProt Q8N9N8 (Q8N9N8 whole entry): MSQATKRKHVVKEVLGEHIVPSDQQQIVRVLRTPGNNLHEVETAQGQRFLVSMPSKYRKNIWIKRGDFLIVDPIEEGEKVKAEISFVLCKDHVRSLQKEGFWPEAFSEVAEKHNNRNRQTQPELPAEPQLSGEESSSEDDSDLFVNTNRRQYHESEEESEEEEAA
Chain of UniProt Q9UBQ5 (Q9UBQ5 whole entry): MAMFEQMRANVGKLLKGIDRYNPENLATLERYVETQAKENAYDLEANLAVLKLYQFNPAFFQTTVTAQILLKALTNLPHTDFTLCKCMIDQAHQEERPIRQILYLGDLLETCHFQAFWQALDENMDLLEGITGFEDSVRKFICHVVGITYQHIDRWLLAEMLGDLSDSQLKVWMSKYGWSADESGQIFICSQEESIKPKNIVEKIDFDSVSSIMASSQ
Chain of UniProt O15372 (O15372 whole entry): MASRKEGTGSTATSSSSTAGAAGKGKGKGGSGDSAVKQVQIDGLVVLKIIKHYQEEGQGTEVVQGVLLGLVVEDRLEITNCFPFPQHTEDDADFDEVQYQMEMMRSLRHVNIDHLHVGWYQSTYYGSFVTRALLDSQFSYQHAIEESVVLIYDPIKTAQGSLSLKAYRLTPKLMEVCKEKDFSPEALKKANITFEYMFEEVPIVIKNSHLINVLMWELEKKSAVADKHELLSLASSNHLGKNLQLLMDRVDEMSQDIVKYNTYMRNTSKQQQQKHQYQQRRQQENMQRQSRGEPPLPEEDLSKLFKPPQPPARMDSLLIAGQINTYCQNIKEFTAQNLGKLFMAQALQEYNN
Chain of UniProt P20042 (P20042 whole entry): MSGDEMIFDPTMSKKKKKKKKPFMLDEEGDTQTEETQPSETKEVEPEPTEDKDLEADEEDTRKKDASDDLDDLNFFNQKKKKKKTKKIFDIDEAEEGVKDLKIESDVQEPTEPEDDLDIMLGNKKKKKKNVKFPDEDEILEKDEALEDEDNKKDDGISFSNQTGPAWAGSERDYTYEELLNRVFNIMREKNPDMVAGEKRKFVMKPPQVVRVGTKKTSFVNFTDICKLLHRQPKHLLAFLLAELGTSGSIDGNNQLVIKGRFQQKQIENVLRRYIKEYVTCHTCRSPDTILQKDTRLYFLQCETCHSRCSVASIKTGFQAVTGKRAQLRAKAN
Chain of UniProt Q9NZN4 (Q9NZN4 whole entry): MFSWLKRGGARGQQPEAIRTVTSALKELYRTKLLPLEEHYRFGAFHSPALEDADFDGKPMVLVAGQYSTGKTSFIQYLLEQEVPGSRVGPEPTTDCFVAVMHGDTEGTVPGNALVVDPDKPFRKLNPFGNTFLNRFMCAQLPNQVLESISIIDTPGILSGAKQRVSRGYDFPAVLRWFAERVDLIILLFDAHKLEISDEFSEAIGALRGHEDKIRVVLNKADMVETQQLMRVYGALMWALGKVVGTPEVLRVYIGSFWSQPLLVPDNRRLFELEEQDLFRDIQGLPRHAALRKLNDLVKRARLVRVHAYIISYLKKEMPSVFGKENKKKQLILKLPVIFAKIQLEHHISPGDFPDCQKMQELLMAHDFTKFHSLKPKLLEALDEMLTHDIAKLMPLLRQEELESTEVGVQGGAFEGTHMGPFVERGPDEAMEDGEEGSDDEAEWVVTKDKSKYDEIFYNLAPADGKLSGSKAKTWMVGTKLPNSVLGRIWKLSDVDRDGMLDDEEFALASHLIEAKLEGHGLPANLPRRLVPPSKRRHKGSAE
Chain of UniProt P60228 (P60228 whole entry): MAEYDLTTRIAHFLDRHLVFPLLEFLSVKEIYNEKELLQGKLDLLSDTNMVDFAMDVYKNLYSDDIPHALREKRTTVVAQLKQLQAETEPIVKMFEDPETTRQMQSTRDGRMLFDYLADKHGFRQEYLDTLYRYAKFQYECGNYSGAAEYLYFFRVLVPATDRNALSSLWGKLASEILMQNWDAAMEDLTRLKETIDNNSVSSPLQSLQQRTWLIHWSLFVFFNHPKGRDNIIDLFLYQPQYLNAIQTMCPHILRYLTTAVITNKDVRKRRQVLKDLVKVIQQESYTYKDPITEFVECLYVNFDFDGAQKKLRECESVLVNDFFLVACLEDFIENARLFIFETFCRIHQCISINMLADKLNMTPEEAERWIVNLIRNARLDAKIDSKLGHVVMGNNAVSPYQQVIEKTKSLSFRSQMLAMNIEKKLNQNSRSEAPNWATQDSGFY
Chain of UniProt P06730 (P06730 whole entry): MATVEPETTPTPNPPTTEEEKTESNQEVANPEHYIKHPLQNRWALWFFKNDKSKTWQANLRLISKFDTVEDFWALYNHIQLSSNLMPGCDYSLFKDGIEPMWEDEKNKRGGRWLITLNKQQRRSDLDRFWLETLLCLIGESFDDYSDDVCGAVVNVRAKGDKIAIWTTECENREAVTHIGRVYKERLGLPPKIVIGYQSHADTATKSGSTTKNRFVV
Chain of UniProt Q99613 (Q99613 whole entry): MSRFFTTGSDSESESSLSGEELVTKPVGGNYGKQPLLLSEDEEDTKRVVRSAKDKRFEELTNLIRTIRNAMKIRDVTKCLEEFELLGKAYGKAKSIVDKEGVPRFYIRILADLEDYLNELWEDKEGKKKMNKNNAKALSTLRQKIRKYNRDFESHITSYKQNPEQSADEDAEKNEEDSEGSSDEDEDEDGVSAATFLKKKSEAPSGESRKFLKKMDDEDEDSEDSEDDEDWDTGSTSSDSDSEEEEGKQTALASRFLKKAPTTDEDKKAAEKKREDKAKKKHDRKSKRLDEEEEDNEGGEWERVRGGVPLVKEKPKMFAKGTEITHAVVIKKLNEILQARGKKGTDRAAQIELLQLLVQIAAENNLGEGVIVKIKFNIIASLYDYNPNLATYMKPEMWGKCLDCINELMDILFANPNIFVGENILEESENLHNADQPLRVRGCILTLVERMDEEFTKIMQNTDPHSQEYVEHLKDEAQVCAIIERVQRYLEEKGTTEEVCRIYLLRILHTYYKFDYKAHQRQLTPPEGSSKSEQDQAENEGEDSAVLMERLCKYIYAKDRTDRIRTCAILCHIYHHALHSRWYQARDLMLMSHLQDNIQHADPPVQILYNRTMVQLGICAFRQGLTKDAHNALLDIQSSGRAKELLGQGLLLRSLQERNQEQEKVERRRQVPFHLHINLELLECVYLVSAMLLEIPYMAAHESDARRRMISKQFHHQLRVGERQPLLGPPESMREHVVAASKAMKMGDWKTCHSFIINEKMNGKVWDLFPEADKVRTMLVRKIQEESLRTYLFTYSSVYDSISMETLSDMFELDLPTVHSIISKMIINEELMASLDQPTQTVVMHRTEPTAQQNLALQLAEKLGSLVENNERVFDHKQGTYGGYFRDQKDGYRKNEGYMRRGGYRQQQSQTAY
Chain of UniProt O75822 (O75822 whole entry): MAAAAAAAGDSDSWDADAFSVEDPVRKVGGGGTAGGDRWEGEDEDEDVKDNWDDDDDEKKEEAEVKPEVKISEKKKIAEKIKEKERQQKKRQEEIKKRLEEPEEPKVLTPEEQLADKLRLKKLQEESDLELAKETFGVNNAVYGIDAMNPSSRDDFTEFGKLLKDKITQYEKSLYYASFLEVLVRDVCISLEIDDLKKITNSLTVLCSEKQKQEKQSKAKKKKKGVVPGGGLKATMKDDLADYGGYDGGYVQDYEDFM
Chain of UniProt Q9NZJ5 (Q9NZJ5 whole entry): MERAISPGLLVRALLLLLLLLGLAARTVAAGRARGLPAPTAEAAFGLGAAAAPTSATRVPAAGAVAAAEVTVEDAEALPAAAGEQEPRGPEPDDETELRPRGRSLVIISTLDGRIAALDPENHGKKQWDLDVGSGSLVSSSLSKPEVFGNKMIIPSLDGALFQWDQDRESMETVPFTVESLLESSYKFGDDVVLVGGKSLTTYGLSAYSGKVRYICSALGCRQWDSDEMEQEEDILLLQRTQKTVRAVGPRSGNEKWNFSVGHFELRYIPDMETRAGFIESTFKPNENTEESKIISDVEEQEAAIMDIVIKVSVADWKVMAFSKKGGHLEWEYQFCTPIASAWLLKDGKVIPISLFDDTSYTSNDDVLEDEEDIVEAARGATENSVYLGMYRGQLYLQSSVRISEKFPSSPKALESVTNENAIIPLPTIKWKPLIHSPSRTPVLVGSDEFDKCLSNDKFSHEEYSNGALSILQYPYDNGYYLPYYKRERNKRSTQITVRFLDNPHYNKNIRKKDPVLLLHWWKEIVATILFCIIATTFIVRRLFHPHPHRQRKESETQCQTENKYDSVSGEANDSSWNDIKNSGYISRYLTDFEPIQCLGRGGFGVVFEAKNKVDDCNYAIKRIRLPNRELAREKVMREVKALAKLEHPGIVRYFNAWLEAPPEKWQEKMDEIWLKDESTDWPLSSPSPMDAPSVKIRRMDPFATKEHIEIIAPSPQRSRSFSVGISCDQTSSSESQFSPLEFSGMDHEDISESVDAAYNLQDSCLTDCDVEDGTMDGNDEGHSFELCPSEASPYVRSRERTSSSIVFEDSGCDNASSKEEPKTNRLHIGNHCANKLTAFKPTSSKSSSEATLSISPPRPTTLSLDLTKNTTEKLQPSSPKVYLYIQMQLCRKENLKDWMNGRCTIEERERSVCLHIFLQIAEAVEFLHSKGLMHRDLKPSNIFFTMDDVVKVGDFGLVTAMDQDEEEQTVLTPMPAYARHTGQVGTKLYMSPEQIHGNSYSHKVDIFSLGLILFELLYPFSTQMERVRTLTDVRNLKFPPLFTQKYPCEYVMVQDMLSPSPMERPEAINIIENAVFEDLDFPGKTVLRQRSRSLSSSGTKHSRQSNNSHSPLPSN

On to EHD1 (UniProt Q9H4M9), for which the thermal stability z-score with potassium arsenate is -0.0304; in the assay with lipoamide (setting [1]), -0.0636; in the assay with lipoamide (arsenate co-treatment: none), 0.13.

Turning to EHD2 (UniProt Q9NZN4), the thermal stability z-score with potassium arsenate was -0.781; with lipoamide (setting [1]), -0.612; with lipoamide (arsenate co-treatment: none), -0.489.

Turning to EHD4 (UniProt Q9H223), the thermal stability z-score in the assay with potassium arsenate is -0.477; with lipoamide (setting [1]) it was 0.435; in the assay with lipoamide (arsenate co-treatment: none) it was 0.326.

EHMT2 (UniProt Q96KQ7): the values for the thermal stability z-score with potassium arsenate, in the assay with lipoamide (setting [1]) and in the assay with lipoamide (arsenate co-treatment: none) were -0.273, 0.132 and 0.0958, respectively.

Consider EI24 (UniProt O14681), for which the values for the thermal stability z-score with potassium arsenate, in the assay with lipoamide (setting [1]) and with lipoamide (arsenate co-treatment: none) were -0.123, 0.221 and -0.249, respectively.

In the case of EIF1 (UniProt P41567), the results for the thermal stability z-score with potassium arsenate, with lipoamide (setting [1]) and with lipoamide (arsenate co-treatment: none) were -0.193, -0.179 and -0.0958, respectively.

As to EIF1AD (UniProt Q8N9N8), the results for the thermal stability z-score with potassium arsenate, in the assay with lipoamide (setting [1]) and in the assay with lipoamide (arsenate co-treatment: none) were 1.09, 0.433 and 0.98, respectively.

Consider EIF1AX (UniProt P47813), for which the results for the thermal stability z-score in the assay with potassium arsenate, in the assay with lipoamide (setting [1]) and with lipoamide (arsenate co-treatment: none) were 0.464, -0.268 and 0.0406, respectively.

Take EIF2A (UniProt Q9BY44): the thermal stability z-score in the assay with potassium arsenate was found to be 1.13; with lipoamide (setting [1]), 0.673; in the assay with lipoamide (arsenate co-treatment: none), 0.102.

As for EIF2AK1 (UniProt Q9BQI3), the thermal stability z-score with potassium arsenate was 0.583; with lipoamide (setting [1]) it was -0.867; with lipoamide (arsenate co-treatment: none), 0.23.

As for EIF2AK2 (UniProt P19525), the thermal stability z-score in the assay with potassium arsenate is -1.01; in the assay with lipoamide (setting [1]) it was -0.0654; with lipoamide (arsenate co-treatment: none), -0.252.

Consider EIF2AK3 (UniProt Q9NZJ5), for which the thermal stability z-score with potassium arsenate is -0.317; with lipoamide (setting [1]), -0.372; with lipoamide (arsenate co-treatment: none), -0.109.

For EIF2AK4 (UniProt Q9P2K8), the thermal stability z-score in the assay with potassium arsenate was determined as 2.05; with lipoamide (setting [1]), 0.566; with lipoamide (arsenate co-treatment: none), 0.141.

Take EIF2B1 (UniProt Q14232): the thermal stability z-score with potassium arsenate turned out to be 0.364; in the assay with lipoamide (setting [1]) it was 0.317; with lipoamide (arsenate co-treatment: none), 0.317.

For EIF2B2 (UniProt P49770), the figures for the thermal stability z-score with potassium arsenate, with lipoamide (setting [1]) and with lipoamide (arsenate co-treatment: none) were 0.643, 1.07 and 0.55, respectively.

As for EIF2B3 (UniProt Q9NR50), the thermal stability z-score was 0.582 in the assay with potassium arsenate, -0.44 with lipoamide (setting [1]) and 0.0579 with lipoamide (arsenate co-treatment: none).

As for EIF2B4 (UniProt Q9UI10), the thermal stability z-score with potassium arsenate is 0.533; in the assay with lipoamide (setting [1]), -0.154; in the assay with lipoamide (arsenate co-treatment: none) it was 0.0556.

Take EIF2B5 (UniProt Q13144): the thermal stability z-score in the assay with potassium arsenate was 0.878; with lipoamide (setting [1]) it was -0.392; in the assay with lipoamide (arsenate co-treatment: none) it was 0.253.

As to EIF2D (UniProt P41214), the results for the thermal stability z-score with potassium arsenate, with lipoamide (setting [1]) and with lipoamide (arsenate co-treatment: none) were -1.22, -1.12 and -0.337, respectively.

For the target EIF2S1 (UniProt P05198), the results for the thermal stability z-score with potassium arsenate, with lipoamide (setting [1]) and with lipoamide (arsenate co-treatment: none) were 0.0905, -0.375 and -0.142, respectively.

As for EIF2S2 (UniProt P20042), the thermal stability z-score with potassium arsenate is -0.16; with lipoamide (setting [1]), 0.121; in the assay with lipoamide (arsenate co-treatment: none), 0.0416.

As for EIF2S3 (UniProt P41091), the figures for the thermal stability z-score with potassium arsenate, in the assay with lipoamide (setting [1]) and in the assay with lipoamide (arsenate co-treatment: none) were 1.34, 0.159 and -0.567, respectively.

In the case of EIF3A (UniProt Q14152), the figures for the thermal stability z-score with potassium arsenate, in the assay with lipoamide (setting [1]) and with lipoamide (arsenate co-treatment: none) were 0.432, 0.713 and 0.446, respectively.

As for EIF3B (UniProt P55884), the thermal stability z-score was 0.472 with potassium arsenate, -0.333 with lipoamide (setting [1]) and 0.0629 with lipoamide (arsenate co-treatment: none).

Regarding EIF3C (UniProt Q99613), the thermal stability z-score was 0.498 with potassium arsenate, -0.304 in the assay with lipoamide (setting [1]) and 0.183 with lipoamide (arsenate co-treatment: none).

Regarding EIF3D (UniProt O15371), the thermal stability z-score was -0.0622 in the assay with potassium arsenate, -0.0633 in the assay with lipoamide (setting [1]) and 0.0556 with lipoamide (arsenate co-treatment: none).

Regarding EIF3E (UniProt P60228), the thermal stability z-score with potassium arsenate is -0.113; with lipoamide (setting [1]), -0.192; in the assay with lipoamide (arsenate co-treatment: none) it was 0.126.

Consider EIF3F (UniProt O00303), for which the thermal stability z-score with potassium arsenate is -0.156; with lipoamide (setting [1]), -0.117; with lipoamide (arsenate co-treatment: none) it was -0.0503.

In the case of EIF3G (UniProt O75821), the results for the thermal stability z-score in the assay with potassium arsenate, in the assay with lipoamide (setting [1]) and in the assay with lipoamide (arsenate co-treatment: none) were 0.711, 0.0353 and -0.0823, respectively.

As to EIF3H (UniProt O15372), the thermal stability z-score is 0.162 with potassium arsenate, -0.579 with lipoamide (setting [1]) and -0.608 with lipoamide (arsenate co-treatment: none).

As for EIF3I (UniProt Q13347), the thermal stability z-score with potassium arsenate is -0.363; with lipoamide (setting [1]), 0.544; with lipoamide (arsenate co-treatment: none), 0.0305.

As to EIF3J (UniProt O75822), the thermal stability z-score with potassium arsenate was 0.444; in the assay with lipoamide (setting [1]), 0.395; with lipoamide (arsenate co-treatment: none) it was -0.118.

In the case of EIF3K (UniProt Q9UBQ5), the values for the thermal stability z-score with potassium arsenate, in the assay with lipoamide (setting [1]) and with lipoamide (arsenate co-treatment: none) were 0.00475, -0.353 and 0.0198, respectively.

In the case of EIF3L (UniProt Q9Y262), the thermal stability z-score with potassium arsenate was -0.297; with lipoamide (setting [1]) it was 0.23; with lipoamide (arsenate co-treatment: none), 0.373.

In the case of EIF3M (UniProt Q7L2H7), the thermal stability z-score with potassium arsenate was 0.304; in the assay with lipoamide (setting [1]) it was 0.136; in the assay with lipoamide (arsenate co-treatment: none), -0.372.

With EIF4A1 (UniProt P60842), the thermal stability z-score turned out to be 0.0167 with potassium arsenate, 0.413 with lipoamide (setting [1]) and 0.201 in the assay with lipoamide (arsenate co-treatment: none).

Regarding EIF4A2 (UniProt Q14240), the thermal stability z-score amounted to 0.658 with potassium arsenate, 1.14 in the assay with lipoamide (setting [1]) and 0.893 in the assay with lipoamide (arsenate co-treatment: none).

For the target EIF4A3 (UniProt P38919), the results for the thermal stability z-score with potassium arsenate, with lipoamide (setting [1]) and in the assay with lipoamide (arsenate co-treatment: none) were -0.492, -0.155 and 0.154, respectively.

As for EIF4B (UniProt P23588), the results for the thermal stability z-score with potassium arsenate, in the assay with lipoamide (setting [1]) and in the assay with lipoamide (arsenate co-treatment: none) were 0.032, 0.102 and 0.429, respectively.

On to EIF4E2 (UniProt O60573), for which the thermal stability z-score was -1.43 with potassium arsenate, -0.568 with lipoamide (setting [1]) and -0.113 in the assay with lipoamide (arsenate co-treatment: none).

EIF4E (UniProt P06730): the thermal stability z-score with potassium arsenate is 0.461; with lipoamide (setting [1]) it was 0.236; with lipoamide (arsenate co-treatment: none) it was -0.135.

With EIF4ENIF1 (UniProt Q9NRA8), the thermal stability z-score with potassium arsenate was -0.0325; with lipoamide (setting [1]) it was -0.03; with lipoamide (arsenate co-treatment: none), 0.00167.

The values above are taken from the supplement of paper PMC12463676, “Small-molecule dissolution of stress granules by redox modulation benefits ALS models” (Nature Chemical Biology, 2025).
